Data from patent publication US10100076B2, “Modified nucleosides for the treatment of viral infections and abnormal cellular proliferation” (priority 2000, dated 2018).

Assays:
rDNA (host DNA) = experiment: rDNA ΔCt in Huh7 replicon cells (effect on cellular DNA polymerases); settings: Table 25, average of N
Excerpt: In another typical setting, a compound might reduce the host RNA polymerase activity, but not the host DNA polymerase activity. Therefore, quantification of rDNA or beta-actin DNA (or any other host DNA fragment) and comparison with DNA levels of the no-drug control is a relative measurement of the inhibitory effect of the test compound on cellular DNA polymerases.
With the availability of both the HCV ΔCt data and the rDNA ΔCt, a specificity parameter can be introduced. This parameter is obtained by subtracting both ΔCt values from each other.

HCV replicon = HCV replicon system in Huh7 cells, replicon RNA by Q-RT-PCR (HCV ΔCt, ΔΔCt); type: cell-based, hepatitis C virus; settings: for Ave. ΔΔCt: HCV RNA ΔCt minus rRNA ΔCt; for Ave. HCV RNA ΔCt: HCV replicon in Huh7 cells; for average ΔΔCt: HCV RNA ΔCt minus rDNA ΔCt
[1] = test system: rRNA (host RNA polymerase I product); experiment: rRNA ΔCt in Huh7 replicon cells (effect on host RNA polymerases); settings: Table 24, average of n
Excerpt: In a typical setting, a compound might reduce both the host RNA polymerase activity and the replicon-encoded polymerase activity. Therefore, quantification of rRNA (or any other host RNA polymerase I product) or beta-actin mRNA (or any other host RNA polymerase II) and comparison with RNA levels of the no-drug control is a relative measurement of the effect of the test compound on host RNA polymerases.
With the availability of both the HCV ΔCt data and the rRNA ΔCt, a specificity parameter can be introduced. This parameter is obtained by subtracting both ΔCt values from each other.
Further: test concentration or dose not given here.

With O=c1nc(NO)c(F)cn1[C@@H]1O[C@H](CO)[C@@H](O)[C@H]1O [β-D-BT] the “Ave. rDNA ΔCt” value (rDNA (host DNA)) was 1.17, the “Ave. ΔΔCt” value (HCV replicon; Table 24) was 1.24 and the “Ave. HCV RNA ΔCt” value (HCV replicon; Table 24, average of n) was 4.83. The “average ΔΔCt” value (HCV replicon; Table 25) was 3.39, the “Ave. HCV RNA ΔCt” value (HCV replicon; Table 25, average of N) was 4.44 and the “Ave. rRNA ΔCt” value [1] was 3.59.
In the case of O=c1nc(NO)c(Br)cn1[C@@H]1O[C@H](CO)[C@@H](O)[C@H]1O [β-D-BU], the “Ave. rDNA ΔCt” value (rDNA (host DNA)) is reported as 1.10, the “Ave. ΔΔCt” value (HCV replicon; Table 24) is reported as 1.06 and the “Ave. HCV RNA ΔCt” value (HCV replicon; Table 24, average of n) is reported as 3.46. The “average ΔΔCt” value (HCV replicon; Table 25) was 1.16, the “Ave. HCV RNA ΔCt” value (HCV replicon; Table 25, average of N) was 3.46 and the “Ave. rRNA ΔCt” value [1] was 2.18.
For O=c1nc(NO)c(I)cn1[C@@H]1O[C@H](CO)[C@@H](O)[C@H]1O [β-D-BV], the “Ave. rDNA ΔCt” value (rDNA (host DNA)) was 0.31, the “Ave. ΔΔCt” value (HCV replicon; Table 24) was 1.22 and the “Ave. HCV RNA ΔCt” value (HCV replicon; Table 24, average of n) was 1.88. For the same compound, the “average ΔΔCt” value (HCV replicon; Table 25) was 1.65, the “Ave. HCV RNA ΔCt” value (HCV replicon; Table 25, average of N) was 1.88 and the “Ave. rRNA ΔCt” value [1] was 0.65.
For O=c1[nH]c(=O)n([C@@H]2O[C@H](CO)[C@@H](O)[C@H]2O)cc1F [β-D-CC], the “Ave. rDNA ΔCt” value (rDNA (host DNA)) was 2.17, the “Ave. ΔΔCt” value (HCV replicon; Table 24) was 0.21 and the “Ave. HCV RNA ΔCt” value (HCV replicon; Table 24, average of n) was 5.04. For the same compound, the “average ΔΔCt” value (HCV replicon; Table 25) was 3.66, the “Ave. HCV RNA ΔCt” value (HCV replicon; Table 25, average of N) was 5.84 and the “Ave. rRNA ΔCt” value [1] was 4.82.
Nc1ncnc2c1ncn2[C@@H]1O[C@H](CO)[C@@H](F)[C@H]1O [β-D-DD] was tested, and the “Ave. rDNA ΔCt” value (rDNA (host DNA)) was 3.30, the “Ave. ΔΔCt” value (HCV replicon; Table 24) was 1.61 and the “Ave. HCV RNA ΔCt” value (HCV replicon; Table 24, average of n) was 6.60. The “average ΔΔCt” value (HCV replicon; Table 25) was 3.30, the “Ave. HCV RNA ΔCt” value (HCV replicon; Table 25, average of N) was 6.60 and the “Ave. rRNA ΔCt” value [1] was 4.99.
OC[C@@H]1C[C@H](F)[C@H](n2cnc3c(Cl)ncnc32)O1 [β-D-DH] was tested, and the “Ave. rDNA ΔCt” value (rDNA (host DNA)) was 0.89, the “Ave. ΔΔCt” value (HCV replicon; Table 24) was 1.21 and the “Ave. HCV RNA ΔCt” value (HCV replicon; Table 24, average of n) was 4.13. The “average ΔΔCt” value (HCV replicon; Table 25) was 3.25, the “Ave. HCV RNA ΔCt” value (HCV replicon; Table 25, average of N) was 4.14 and the “Ave. rRNA ΔCt” value [1] was 2.91.
For O=C(Nc1nc(=O)n([C@H]2C=C[C@@H](CO)O2)cc1F)c1ccccc1[N+](=O)[O-] [β-D-EB], the “Ave. rDNA ΔCt” value (rDNA (host DNA)) was 0.96, the “Ave. ΔΔCt” value (HCV replicon; Table 24) was 1.90 and the “Ave. HCV RNA ΔCt” value (HCV replicon; Table 24, average of n) was 3.33. For the same compound, the “average ΔΔCt” value (HCV replicon; Table 25) was 2.37, the “Ave. HCV RNA ΔCt” value (HCV replicon; Table 25, average of N) was 3.33 and the “Ave. rRNA ΔCt” value [1] was 1.42.
OC[C@@H]1C=C(F)[C@H](n2cnc3c(Cl)ncnc32)O1 [β-D-FA] was tested, and the “Ave. rDNA ΔCt” value (rDNA (host DNA)) was 1.92, the “Ave. ΔΔCt” value (HCV replicon; Table 24) was 1.44 and the “Ave. HCV RNA ΔCt” value (HCV replicon; Table 24, average of n) was 3.80. The “average ΔΔCt” value (HCV replicon; Table 25) was 0.78, the “Ave. HCV RNA ΔCt” value (HCV replicon; Table 25, average of N) was 3.80 and the “Ave. rRNA ΔCt” value [1] was 3.58.
For Nc1ccn([C@@H]2C=C(CO)[C@@H](O)[C@H]2O)c(=O)n1 [β-D-HA], the “Ave. rDNA ΔCt” value (rDNA (host DNA)) was 2.04, the “Ave. ΔΔCt” value (HCV replicon; Table 24) was 1.68 and the “Ave. HCV RNA ΔCt” value (HCV replicon; Table 24, average of n) was 5.52. The “average ΔΔCt” value (HCV replicon; Table 25) was 3.16, the “Ave. HCV RNA ΔCt” value (HCV replicon; Table 25, average of N) was 5.12 and the “Ave. rRNA ΔCt” value [1] was 3.85.
In the case of Nc1nc(=O)n([C@@H]2C=C(CO)[C@@H](O)[C@H]2O)cc1F [β-D-HB], the “Ave. rDNA ΔCt” value (rDNA (host DNA)) is reported as 1.19, the “Ave. ΔΔCt” value (HCV replicon; Table 24) is reported as 1.30 and the “Ave. HCV RNA ΔCt” value (HCV replicon; Table 24, average of n) is reported as 2.94. The “average ΔΔCt” value (HCV replicon; Table 25) was 0.40, the “Ave. HCV RNA ΔCt” value (HCV replicon; Table 25, average of N) was 1.90 and the “Ave. rRNA ΔCt” value [1] was 1.65.
Nc1nc(Cl)c2ncn([C@H]3CS[C@@H](CO)O3)c2n1 [β-D-KB] was tested, and the “Ave. rDNA ΔCt” value (rDNA (host DNA)) was 0.00, the “Ave. ΔΔCt” value (HCV replicon; Table 24) was 1.10 and the “Ave. HCV RNA ΔCt” value (HCV replicon; Table 24, average of n) was 3.61. For the same compound, the “average ΔΔCt” value (HCV replicon; Table 25) was 3.81, the “Ave. HCV RNA ΔCt” value (HCV replicon; Table 25, average of N) was 3.81 and the “Ave. rRNA ΔCt” value [1] was 2.52.
O=c1nc2n(cc1F)[C@@H]1O[C@H](CO2)[C@@H](O)[C@H]1O [β-D-LA] was tested, and the “Ave. rDNA ΔCt” value (rDNA (host DNA)) was 1.56, the “Ave. ΔΔCt” value (HCV replicon; Table 24) was 0.89 and the “Ave. HCV RNA ΔCt” value (HCV replicon; Table 24, average of n) was 3.85. For the same compound, the “average ΔΔCt” value (HCV replicon; Table 25) was 1.98, the “Ave. HCV RNA ΔCt” value (HCV replicon; Table 25, average of N) was 3.54 and the “Ave. rRNA ΔCt” value [1] was 4.10.
For CC(=O)O[C@H]1[C@@H]2Oc3nc(=N)ccn3[C@@H]2O[C@@H]1CO [β-D-MD], the “Ave. rDNA ΔCt” value (rDNA (host DNA)) was 1.58, the “Ave. ΔΔCt” value (HCV replicon; Table 24) was 1.62 and the “Ave. HCV RNA ΔCt” value (HCV replicon; Table 24, average of n) was 3.57. For the same compound, the “average ΔΔCt” value (HCV replicon; Table 25) was 1.46, the “Ave. HCV RNA ΔCt” value (HCV replicon; Table 25, average of N) was 3.50 and the “Ave. rRNA ΔCt” value [1] was 1.95.
N=c1ccn2c(n1)O[C@H]1[C@H](O)[C@@H](CO)O[C@H]12 [β-D-ME] was tested, and the “Ave. rDNA ΔCt” value (rDNA (host DNA)) was 1.53, the “Ave. ΔΔCt” value (HCV replicon; Table 24) was 1.64 and the “Ave. HCV RNA ΔCt” value (HCV replicon; Table 24, average of n) was 2.89. For the same compound, the “average ΔΔCt” value (HCV replicon; Table 25) was 1.36, the “Ave. HCV RNA ΔCt” value (HCV replicon; Table 25, average of N) was 2.89 and the “Ave. rRNA ΔCt” value [1] was 1.25.
For N=c1nc2n(cc1F)[C@@H]1O[C@H](CO)[C@@H](O)[C@@H]1O2 [β-D-MF], the “Ave. rDNA ΔCt” value (rDNA (host DNA)) was 2.17, the “Ave. ΔΔCt” value (HCV replicon; Table 24) was 1.10 and the “Ave. HCV RNA ΔCt” value (HCV replicon; Table 24, average of n) was 3.79. The “average ΔΔCt” value (HCV replicon; Table 25) was 1.65, the “Ave. HCV RNA ΔCt” value (HCV replicon; Table 25, average of N) was 3.79 and the “Ave. rRNA ΔCt” value [1] was 2.69.
In the case of Nc1nc(SSc2nc(N)nc3c2ncn3[C@@H]2O[C@H](CO)[C@@H](O)[C@H]2O)c2ncn([C@@H]3O[C@H](CO)[C@@H](O)[C@H]3O)c2n1 [β-D-QA], the “Ave. rDNA ΔCt” value (rDNA (host DNA)) is reported as 2.30, the “Ave. ΔΔCt” value (HCV replicon; Table 24) is reported as −0.89 and the “Ave. HCV RNA ΔCt” value (HCV replicon; Table 24, average of n) is reported as 2.91. The “average ΔΔCt” value (HCV replicon; Table 25) was 2.55, the “Ave. HCV RNA ΔCt” value (HCV replicon; Table 25, average of N) was 4.85 and the “Ave. rRNA ΔCt” value [1] was 3.81.
With CC1(CO)CO[C@@H](n2cnc3c(N)nc(F)nc32)C1 (stereo partly drawn) [β-D-VA] the “Ave. ΔΔCt” value (HCV replicon; Table 24) was 1.39, the “Ave. HCV RNA ΔCt” value (HCV replicon; Table 24, average of n) was 5.56 and the “Ave. rRNA ΔCt” value [1] was 4.17.
